The values below come from US10273272B2, “Antimicrobial peptides” (Amprologix Limited, priority 2014, dated 2019).

For one assay, the system named is S. Hominis. It counts as cell-based. The protocol: (§1) Experiments were conducted in which the full-length epidermicin peptide (51 amino acids, SEQ ID NO:10) was truncated to yield the derivatives shown in FIG. 1 (SEQ ID NOs:11 to 19). NI011-37 (SEQ ID NO:11) Is the region most similar to other peptides in the public domain, NI0138-51 (SEQ ID NO:12) is the region that is most unique with respect to other peptides in the public domain. All other truncations have been carried out by removing residues from the amino-terminal end of the peptide to each lysine residue (K). Lysine is important in antimicrobial peptides as it contributes to the net positive charge, which is thought to have a key role in the mode of action of ‘cationic’ peptides, like NI01 (SEQ ID NO:10).

Another assay relates to S. aureus 1195. The class given is cell-based. The protocol:
as §1

Another assay has as its system S. saprophyticus. It counts as cell-based. The protocol: as §1
In assay [1] the test system is Vanc. resistant Enterococcus. The class given is cell-based. As to the method: as §1
The next assay has as its system S. epidermidis. It counts as cell-based. The protocol:
as §1

The subject of assay [2] is MRSA. It counts as cell-based, Staphylococcus aureus. As to the method:
as §1

In a further assay the test system is Gram-negative bacteria. The class given is cell-based. Particulars: previous data, not presented. The protocol:
It was a most surprising finding that the truncated and modified novel peptides of the present invention based on the epidermicin peptide were effective against Gram negative bacteria.
(§2) A series of derivatives of the NI0138-51 (SEQ ID NO:12) truncation were carried out with a view to maintaining stability of the helix and/or increasing net positive charge of the peptides (Table 3). Minimum inhibitory concentrations (MICs) were determined for each derivative against a range of Gram positive and Gram negative organisms by a modified 2-fold microtitre broth dilution method (Wu and Hancock, J Biol Chem 1999; 274: 29-35) (Table 2). […] This could not have been predicted.

In assay [3] the test system is MRSA. It counts as cell-based, Staphylococcus aureus. The protocol:
as §2
The source holds these as a separate data set.

The test system of the next assay is E. coli. The class given is cell-based. The following applies: for Average MIC: average of triplicate experiments, Table 5. The protocol: as §2
The subject of assay [4] is Klebsiella (K. pneumoniae). The class given is cell-based. The protocol:
as §2

The test system of the next assay is N. lactamica. It counts as cell-based. The protocol:
as §2

Another assay relates to P. aeruginosa. The class given is cell-based. The protocol:
as §2

A further assay has as its system S aureus 1195. The class given is cell-based. As to the method:
as §2

For the next assay, the system named is VISA. The class given is cell-based. As to the method:
as §2

Assay [5] has as its system Gram positive and negative bacteria. The assay is described as follows: Antimicrobial activity against drug-resistant pathogens, summary in words. The class given is cell-based. The following applies: summary of Table 2. As to the method: as §2

Read-outs that look alike come from different tables or passages of the source. No end group written: not given here.

For orientation: MIC means the least concentration at which growth counts as inhibited. In the case of “KGQKYVSLAWKHKGTILKWINAGQSFEWIYKQIKKLWA [SEQ ID NO:14]”, the MIC with S. Hominis turned out to be 6 µg/mL; against S. aureus 1195, 8 µg/mL; in the assay on S. saprophyticus, 8 µg/mL; in [1], 4 µg/mL.
As to KQIKKLWA [SEQ ID NO:19], the MIC is greater than 64 µg/mL in the assay with S. Hominis; 16 µg/mL with S. aureus 1195; greater than 64 µg/mL against S. epidermidis; 16 µg/mL with S. saprophyticus; greater than 64 µg/mL in the assay on MRSA [2].
KWINAGQSFEWIYKQIKKLWA [SEQ ID NO:18]: the MIC with S. Hominis worked out at 6 µg/mL; in the assay on S. aureus 1195 it was 8 µg/mL; in the assay on S. saprophyticus it was 4 µg/mL; in assay [1] it was 4 µg/mL.
“MAAFMKLIQFLATKGQKYVSLAWKHKGTILKWINAGQ [SEQ ID NO:11]”: the minimal inhibitory concentration (MIC) with S. Hominis stood at 12 µg/mL; against S. aureus 1195, 8 µg/mL; in the assay with S. saprophyticus, 8 µg/mL; in assay [1] it was 8 µg/mL.
For the sequence “MAAFMKLIQFLATKGQKYVSLAWKHKGTILKWINAGQSFEWIYKQIKKLWA [SEQ ID NO:10, reference compound]”, the MIC against S. Hominis amounted to 0.42 µg/mL; against S. aureus 1195, 0.16 µg/mL; against S. saprophyticus it was 0.02 µg/mL; in the assay with MRSA [2] it was 0.03 µg/mL. The “MIC values against Gram-negative bacteria” value against Gram-negative bacteria was greater than 64 µg/mL.
On to “SFEWIYKQIFKLWA [SEQ ID NO:1, SFEWIYKQIFKLWA]”, for which the minimal inhibitory concentration (MIC) against MRSA [3] is greater than 64 µg/mL; against E. coli (E. coli 50, Table 2), greater than 64 µg/mL; in the assay with E. coli (E. coli 178, Table 2) it was greater than 64 µg/mL; in the assay with E. coli (E. coli DH5α, Table 2), greater than 64 µg/mL; against E. coli (E.coli 177, Table 2) it was greater than 64 µg/mL; in assay [4], greater than 64 µg/mL. The minimal inhibitory concentration (MIC) in the assay with N. lactamica, against P. aeruginosa, against S aureus 1195 and in the assay on VISA was greater than 64 µg/mL in each case. The “Average MIC” value in the assay on E. coli (E. coli 49), with E. coli (E. coli 50), in the assay on E. coli (E. coli 177), with E. coli (E. coli 178), in the assay with E. coli (E. coli 187) and in the assay on E. coli (E. coli DH5a) was greater than 64 µg/mL each time. Also, the “Average MIC” value (in assay [4]; in the assay with S aureus 1195) was greater than 64 µg/mL throughout. In assay [5], the “antimicrobial activity against Gram positive and negative bacteria, in words” value is “significantly reduced activity”.
“SFEWIYKQPKKLWA [SEQ ID NO:20, SFEWIYKQPKKLWA]”: the MIC is greater than 64 µg/mL against MRSA [3]; greater than 64 µg/mL against E. coli (E. coli 50, Table 2); greater than 64 µg/mL with E. coli (E. coli 178, Table 2); greater than 64 µg/mL against E. coli (E. coli DH5α, Table 2); greater than 64 µg/mL against E. coli (E.coli 177, Table 2); greater than 64 µg/mL in assay [4]. In addition, the minimum inhibitory concentration (MIC) in the assay with P. aeruginosa, in the assay with S aureus 1195 and against VISA was greater than 64 µg/mL in each case.
